BindingDB's records for doi:10.1016/s0960-894x(99)00064-5 (Institut De Chimie Organique De L'Universit&#233, 1999)

Assays:
[1] = molecular target: Beta-galactosidase (Canavalia ensiformis); assay: Inhibition constant against beta-galactosidase enzyme of jack bean was reported
[2] = molecular target: Beta-galactosidase (Canavalia ensiformis); assay: as above; remark: listed apart in the source

For `CC(=O)N[C@H]1C(O)O[C@H](C(O)CO)[C@@H]1C[C@H]1O[C@H](CO)[C@@H](O)[C@H](O)[C@@H]1O` (some centres not stated) [N-[2,5-Dihydroxy-6-hydroxymethyl-4-(3,4,5-trihydroxy-6-hydroxymethyl-tetrahydro-pyran-2-ylmethyl)-tetrahydro-pyran-3-yl]-acetamide and N-[5-(1,2-Dihydroxy-ethyl)-2-hydroxy-4-(3,4,5-trihydroxy-6-hydroxymethyl-tetrahydro-pyran-2-ylmethyl)-tetrahydro-furan-3-yl]-acetamide], the IC50 [1] was 9.4 µM and the Ki [2] was 7.5 µM.
